Experimental data as given in patent publication US8765953B2, “Compounds and methods for the treatment of pain and other diseases” (Aquilus Pharmaceuticals, Inc., priority 2008, dated 2014).

Assays:
[1] = In-vitro mouse microsomal stability; format: in vitro ADME; settings: mouse microsomes, 1 microMolar compound, at T = 60 minutes
Experimental: Human and mouse microsomal stability was determined for select compounds following the method of Houston (Houston, J. B; Biochem. Pharmacol. 47, (1994),1469).
1 μM concentration of compound and separate human and mouse microsomes (0.3 mg/mL, BD bioscience) were used in the in-vitro assay. To ensure proper energy supply for microsomal degradation of compound, an energy regenerating system comprised of 100 mM potassium phosphate, 2 mM NADPH, 3 mM MgCl2, pH=7.4. and the microsomal protein is added to each sample and the resulting suspension is then incubated in duplicate for 60 min at 37° C. in a rotary shaker. A control is run for each test agent in duplicate omitting NADPH to detect NADPH-free degradation. At T=0 and T=60 min., an aliquot is removed from each experimental and control reaction and then mixed with an equal volume of ice-cold Stop Solution (consisting of 0.3% acetic acid in acetonitrile containing haloperidol and diclofenac as internal standards). Stopped reactions are then incubated for at least ten minutes at −20° C., and an additional volume of water is then added. The samples are then centrifuged to remove precipitated protein, and the supernatants are then analyzed by LC-MS/MS to determine the percentage of compound remaining. The LC-MS/MS system used was an Agilent 6410 mass spectrometer coupled with an Agilent 1200 HPLC and a CTC PAL chilled autosampler, all controlled by MassHunter software (Agilent), or an ABI2000 mass spectrometer coupled with an Agilent 1100 HPLC and a CTC PAL chilled autosampler, all controlled by Analyst software (ABI). After separation on a C18 reverse phase HPLC column (Agilent, Waters, or equivalent) using an acetonitrile-water gradient system, peaks were analyzed by mass spectrometry (MS) using ESI ionization in MRM mode.

[2] = system: spinal nerve ligation (SNL) mouse model; assay: Intraperitoneal (i.p.) SNL-mouse model of neuropathic pain, von Frey mechanical allodynia; format: in vivo
Description: To measure the neuropathic pain inhibiting affects of the MMP inhibitors of the present invention, the spinal nerve ligation (SNL) mouse model was run on a select number of compounds. This model which began with the work of Bennet and coworkers (Bennet, G. J. et al. Pain, 33, (1988), 87-107) and was optimized by Kim and Chung (Kim, S. H.; Chung, J. M. Pain, 50, (1992), 355-363) entails first, under magnification, the removal of one-third of the transverse process and then identifying and then dissecting free the L5 spinal nerve from the adjacent L4 spinal nerve in the mouse. The L5 spinal nerve is then tightly ligated using 6.0 silk suture. The nerve injury leads to hyperalgesia which manifests itself by enhanced responses to mechanical, heat and/or cooling stimuli. In this case, mechanical hyperalgesia is tested via Von Frey monofilaments in which filaments of varying thicknesses and bending force are individually applied to the plantar surface of the foot of the mouse. The threshold force necessary for paw withdrawal decreases dramatically after the nerve surgery. Potent pain inhibitors will reverse this affect resulting in greater force needing to be applied to cause the rodent paw to withdrawal.
Tactile Allodynia Test. Mechanical allodynia was measured using the calibrated von Frey filaments (Semmes-Weinstein monofilaments; Stoelting, Wood Dale, Ill., U.S.A.). The plantar surface of the left injured paw of each animal was tested as described by Chaplan et al. (Journal of Neuroscience Methods, 53, (1994), 55-63). The Fifty percent paw withdrawal threshold response was determined by sequentially increasing or decreasing the stimulus strength according to the “up-down method” of Dixon (Annual Review Pharmacology Toxicology, 20, (1980), 441-462). For mice, […] von Frey filaments were used, with approximately equal logarithmic incremental bending forces (von Frey number: 1.65, 2.36, 2.44, 2.83, 3.22, 3.61, 3.84, 4.08, and 4.17; equivalent to 0.005, 0.02, 0.03, 0.07, 0.17, 0.41, 0.69, 1.20, and 1.48 g force, respectively).
Prior to testing, each animal was placed in a suspended clear plastic chamber with a wire mesh bottom and acclimated for 15 minutes. Testing was initiated with the 0.07 g (handle marking of 2.83) applied perpendicularly to the plantar surface of the affected hind paw; each filament was applied with enough pressure to cause a buckle effect. The absence of a paw lifting/withdrawal response after 6 s prompted the use of the next higher weight filament. Paw withdrawal, indicating a positive response, prompted the use of a weaker filament. After the initial positive response (i.e., paw withdrawal), the testing continued for four additional measurements, and was used to calculate the response threshold. Four consecutive positive responses received a score of 0.001 g, and five consecutive negative responses (i.e., no paw withdrawal) received a score of 1.5 g.
Analyses for Tactile Allodynia Testing. The 50% paw withdrawal threshold was calculated (PWT; Luo and Calcutt, J. Pharmacology Experimental Therapeutics, 303(3), (2002), 1199-1205; Chaplan et al. Journal of Neuroscience Methods, 53, (1994), 55-63) using the formula: 10(Xf+κδ)/10,000 where Xf is the final von Frey filament used (log units), κ is a value that analyzes the response pattern (taken from the table published by Chaplan et al., 1994), and δ is the mean difference between stimuli (log units).
Except for the mode of administration, number of mice/group and the number of injections and amount of compound per injection, the rest of the study was done in the same manner (in regards to the surgeries and tactile allodynia testing and analysis) as Experiment 110. 3.2 mg of each of the MMP inhibitors #5 and #118 were dissolved in 320 microliters of DMSO. To the solution was then added 32 microliters of Tween 80, followed by 2850 microliters of phosphate buffered saline (PBS). This gave a final concentration of 10% DMSO, 1% Tween and 1 mg/ml compound. […]

humans = settings: cited from earlier work
[3] = cited from earlier work
[4] = i.p. 100 μl/mouse daily (approx. 3.3 mg/Kg), day 1-5

SMILES: Cc1ccc(C#Cc2ccc(S(=O)(=O)N[C@H](Cc3c[nH]c4ccccc34)C(=O)O)s2)cc1 [Compound 5, (R)-3-(1H-Indol-3-yl)-2-(5-p-tolylethynyl-thiophene-2-sulfonylamino)-propionic acid]
- % Mean Remaining Parent with NADPH (%) ([1]; with NADPH): 83%
- % Mean Remaining Parent without NADPH (%) ([1]; without NADPH (control)): 88%
- Paw withdrawal threshold, mean, Day 1 [2, 4]: 0.078 grams
- Paw withdrawal threshold, mean, Day 2 [2, 4]: 0.117 grams
- Paw withdrawal threshold, mean, Day 5 [2, 4]: 0.238 grams
- Paw withdrawal threshold, mean, Day 6 [2, 4]: 0.099 grams
- Paw withdrawal threshold, mean, Day 7 [2, 4]: 0.128 grams
- Paw withdrawal threshold, mean, Day 0 Postoperative Baseline ([2]; i.p. study, baseline before treatment): 0.046 grams
- Musculoskeletal toxicities (humans; humans (S-3304: animals or man)): no evidence of musculoskeletal toxicities
- Adverse events in humans (humans; humans): headaches, somnolence, vomiting, nausea and gastrointestinal pain
- Metabolites found in human blood [3]: formation of several hydroxylated metabolites
